Entries after “also recorded” stand apart in the source; their conditions may differ. Blank lines part the entries; values can stand above or below the molecule they belong to.
Key:
MEF2A/DNA complex = target: T1, MEF2A/DNA complex (Homo sapiens, UniProt Q02078); experiment: In vitro photo-crosslinking of assembled MEF2/DNA complex, read on denaturing SDS/urea gel or agarose gel; format: biochemical
T1 construct: human MEF2A DBD (residues 2-95); made in house
T1 sequence (Q02078 2-95): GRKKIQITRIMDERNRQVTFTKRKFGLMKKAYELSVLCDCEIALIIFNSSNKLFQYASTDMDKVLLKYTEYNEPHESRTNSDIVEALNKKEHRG
Description: In vitro assays have confirmed the success and the efficiency of the demo probe (AMT-LC-SDA) in crosslinking double strand DNA of various contents and DNA-binding protein human myocyte enhancer factor 2A (MEF2A) (1-95 aa) (FIG. 5C-FIG. 5E). The solid crosslinking is confirmed for the probe with UV photo crosslinking conditions by denaturing or digestive approaches such as running with 8.3 M urea gel, SDS gel, combined with sample with overnight digestion of proteinase K at 65 Celsius and denatured at high temperature of 95 Celsius with SDS loading dye. […] Under these harsh evaluation conditions, the protein got digested on the crosslinking complex thoroughly, yet the remaining crosslinked amino acids residuals still have made the DNA to be in a larger size and shifted clearly compared to other controls, which is indicated by the bold shaped arrow. Agarose gel was also used for its bigger pore size to estimate the crosslinking efficiency (UV 2 hrs), estimated by the amount of the left free DNA, our probe has reached around 30-60% efficiency (FIG. 5E), which is much higher than the UV-initiated protein DNA crosslinking without the use of a probe (10-20%) as reported in Nature Communications, volume 11, Article number: 3019 (2020). […] This further supports the idea of applying this probe for replacement of formaldehyde, it crosslinks the protein only within the proximity of nucleic acids, thereby largely reducing the random protein-protein crosslinking noise and helps to preserve the native state of protein epitopes.
The BFPX probe 4AMT-LC-SDA was synthesized with good yield by the NHS-amine chemistry using psoralen and diazirine derivatives (FIG. 5A, FIG. 5B). To test its photo crosslinking ability, human transcription factor MEF2A (the MADS-box/MEF2 domain) and double strand DNA containing a MEF2 binding site were used. We first used electrophoresis mobility shift assay (EMSA) to validate the activity of the purified recombinant MEF2A DNA-binding domain. After finding out the optimal protein to DNA ratio, the in vitro assembled MEF2/DNA complex was then subject to photocrosslinking in the presence or absence of the 4AMT-LC-SDA probe with or without UV illumination. Multiple other control experiments were carried out in parallel to test the specificity of photocrosslinking between the DNA and MEF2. Specifically, parameters such as protein/DNA amounts (1:[…]), ratio, UV time (10 m to 4 hrs), wavelength (320 to 360 nm), LV source (mercury long lamp, LED) and their distance to the reaction mixture have been optimized along the course. The MEF2 Protein and DNA were incubated first to mimic an in vivo binding mode and stoichiometry, and then the mixture was incubated with our 4AMT-LC-SDA probe to undergo UV illumination. The results were evaluated by running denaturing gels (SDS in FIG. 5D, or Urea in FIG. 5C) against the high temperature denatured reaction mixtures and checking the respective protein (silver stain) or DNA (FAM label) signals. To further rule out any other possible false positiveness during loading, proteinase K digestion was applied to all the samples including the negative controls with SDS at 65 degrees.

NFAT1/DNA complex = target: T2, NFAT1/DNA complex (Homo sapiens, UniProt Q13469); experiment: In vitro photo-crosslinking of assembled NFAT1/DNA complex, denaturing SDS gel; format: biochemical; conditions: for formation of covalent NFAT1/DNA crosslinked complex stable under denaturing SDS-PAGE: probe + UV 365 nm, 2% SDS, boil 10 min
T2 construct: human NFAT1 protein (residue 399-676, NFAT1-DBD)
T2 sequence (Q13469 399-676): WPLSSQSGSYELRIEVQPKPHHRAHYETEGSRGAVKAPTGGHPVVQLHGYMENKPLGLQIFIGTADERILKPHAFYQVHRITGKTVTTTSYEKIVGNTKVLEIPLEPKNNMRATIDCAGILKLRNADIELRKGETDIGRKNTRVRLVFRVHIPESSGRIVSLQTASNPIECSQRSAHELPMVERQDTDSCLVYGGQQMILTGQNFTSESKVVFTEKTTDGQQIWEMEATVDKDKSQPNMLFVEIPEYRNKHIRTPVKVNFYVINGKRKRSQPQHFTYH
Method: The probe binding and UV crosslinking were carried out as described in FIG. 5G and FIG. 7. The crosslinked complexes (lane 3 and lane 6) were further treated with DTT (100 mM, heat 50 degree C. for 30 min). The reaction mixtures were run on SDS gel and visualized by FAM fluorescence for DNA (top) and by Coomassie blue stain for protein (bottom) as described in FIG. 7. FIG. 7 depicts denaturing SDS gel analysis of covalent capture of in vitro assembled MEF2/DNA and NFAT1/DNA complexes by the BFPX probe, SPB-AAD. […] The protein/DNA complexes are incubated at room temperature for 30 min, and treated with various combination of BFPX probe (SPB-AAD) and UV illumination as described in FIG. 5G. […] The reaction mixtures were added SDS loading dye (2% SDS), boil for 10 min, and run on SDS gel (Bio-Rad Any Kd gradient gel). The same gel was visualized by FAM fluorescence for DNA (top) and by Coomassie blue stain for protein (bottom). FIG. 8C depicts denaturing SDS gel analysis of covalent capture of in vitro assembled MEF2/DNA and NFAT1/DNA complexes by the BFPX probe, SPB-PEG3-AAD. […] The reaction mixtures were run on SDS gel and visualized by FAM fluorescence for DNA (top) and by Coomassie blue stain for protein (bottom) as described in FIG. 7. […] Typically protein and DNA are mixed to bind at room temperature for 30 min, followed by addition of BFPX probes for an additional 15 min and then UV illumination. In the case of FA treatment, the reaction time is 10 min at room temperature and then quenched by 250 mM glycine. […] The UV illumination (as indicated by a positive sign) was carried out using a LED Chip (21.4 mm×21.4 mm, 365-370 nm, 30 Watt, sample distance 2 cm, exposure time 2-15 min at 4 degree C., here the exposure time is 15 min). […] The small amount of single stranded DNA is due to incomplete annealing. The higher smearing bands are most likely non-specific protein complexes. Neither of these experimental imperfections affected the main conclusion of this experiment because the double stranded-DNA bands and the specific NFAT-DNA complex bands (the middle sharp bands) are well defined and can be monitored without the interference of the other bands. […] The gel was visualized by Cy5 fluorescence for DNA. FIG. 12E depicts further characterization of BFPX crosslinking of NFAT1/DNA complexes using different DNA substrates and staining techniques. Two unlabeled DNA substrates containing a core NFAT-binding site and different flanking bases and sequence lengths ([…] ID NO: 4), 21 mer, c2: [NT] ID NO: 5), 16 mer) were used to bind the NFAT1-DBD as described in FIG. 12C. […] The reactions were then analyzed by SDS PAGE under denaturing condition as described in FIG. 12D. Because the DNA is unlabeled, the gel was stained using either cyanine-based dye (SYBR Safe) or Coomassie Blue stain (CB). […] The different size of the NFAT-c1DNA complexes (lane 2) and NFAT-c2DNA complexes (lane 4) was resolved by loading reactions of lane 2 (2a, 2b and 2c) and lane 4 (4a, 4b and 4c) as triplicates side-by-side on the same gel (lower panel) using either SYBR and CB stain. FIG. 12F depicts time course of BFPX crosslinking of NFAT1/DNA complexes. […] The reactions at different time points were then analyzed on SDS gel as described in FIG. 12D. […] When the UV exposure time is longer than 5 min, a significant amount of crosslinked NFAT-DNA complex can be formed with UV illumination without SPB-AAD.

[1] = target: double stranded DNA and RNA; conditions: cited from earlier work; for efficiency of covalent crosslinking to DNA: long-wavelength (˜360 nm) UV illumination
DNA binding by NFAT1 = target: T3, DNA binding by NFAT1 (Homo sapiens, UniProt Q13469); experiment: Native EMSA of the effect on DNA binding by NFAT1; format: biochemical; conditions: FIG. 12C; increasing concentrations; probes with UV 365 nm 15 min; compared to control lane 3
T3 construct: human NFAT1 protein (residue 399-676, NFAT1-DBD)
T3 sequence (Q13469 399-676): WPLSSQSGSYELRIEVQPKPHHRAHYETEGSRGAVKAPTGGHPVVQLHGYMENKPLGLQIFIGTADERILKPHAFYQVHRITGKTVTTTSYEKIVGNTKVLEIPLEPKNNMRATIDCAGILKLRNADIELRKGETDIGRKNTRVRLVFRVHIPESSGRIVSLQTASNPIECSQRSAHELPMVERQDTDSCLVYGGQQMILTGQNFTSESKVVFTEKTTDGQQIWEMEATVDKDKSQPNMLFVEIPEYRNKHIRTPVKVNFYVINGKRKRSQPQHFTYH
Method: All binding reactions contain 10 μM 27 mer dsDNA (5′6-FAM labeled) with a NFAT-binding site, and various combinations of NFAT1 protein (14 μM), FA (1% v/v), 4AMT-LC-SDA (20 μM), with or without UV illumination (365 nm, LED, 30 Watt, sample distance 2 cm, exposure time 15 min at 4 degree C.). 10 μl of the binding reaction is run on a 10% PAGE 0.5×TBE gel. The same gel was visualized by FAM fluorescence for DNA (top) and by Coomassie blue stain for protein (bottom). The higher smearing bands in lane 3, 8, 9, and 10 are most likely non-specific protein complexes often seen when an excessive amount of protein is used to ensure all DNA is bound.
The binding reactions were performed in a buffer of 20 mM Hepes pH 7.6, 150 mM NaCl, 1 mM DTT, 12% glycerol. Typically protein and DNA are mixed to bind at room temperature for 30 min, followed by addition of BFPX probes for an additional 15 min and then UV illumination. In the case of FA treatment, the reaction time is 10 min at room temperature and then quenched by 250 mM glycine. When included (as indicated by a positive sign), the binding reaction contains 10 μM 27 mer dsDNA (Cy5-labeled) with a NFAT-binding site (the antigen receptor response element 2, ARRE2, from the IL-2 promoter, 5′-Cy5-[sequence]-3′ (SEQ ID NO: 2), the complementary strand is not labeled), 24 μM of the DNA binding domain (DBD) of human NFAT1 protein (residue 399-676, NFAT1-DBD). The UV illumination (as indicated by a positive sign) was carried out using a LED Chip (21.4 mm×21.4 mm, 365-370 nm, 30 Watt, sample distance 2 cm, exposure time 2-15 min at 4 degree C., here the exposure time is 15 min). Half of the binding reaction (7.5 μl) was run on a 10% PAGE 0.5×TBE gel and visualized by Cy5 fluorescence on DNA. The small amount of single stranded DNA is due to incomplete annealing. The higher smearing bands are most likely non-specific protein complexes. Neither of these experimental imperfections affected the main conclusion of this experiment because the double stranded-DNA bands and the specific NFAT-DNA complex bands (the middle sharp bands) are well defined and can be monitored without the interference of the other bands.
The presence of both DNA and protein in the same shifted band can be checked by the FAM fluorescence signal (top) and Coomassie stain (bottom), respectively (free NFAT is positively charged and not observable under the EMSA condition).

Nkx2.5/DNA complex = target: T4, Nkx2.5/DNA complex (Homo sapiens, UniProt P52952); experiment: BFPX crosslinking of Nkx2.5/DNA complexes, SDS PAGE; format: biochemical; conditions: denaturing SDS PAGE; probes with UV
T4 construct: human Nkx2.5 DBD (the homeodomain); made in house
T4 sequence (P52952 138-197 limits assumed, one chain of several): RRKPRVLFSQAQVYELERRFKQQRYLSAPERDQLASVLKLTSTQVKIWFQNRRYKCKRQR
Method: FIG. 12H depicts BFPX crosslinking of Nkx2.5/DNA complexes. […] The various treatment combinations were list above the gel. The reactions were then analyzed by SDS PAGE under denaturing condition as described in FIG. 12D.

p53/DNA complex = target: T5, p53/DNA complex (Homo sapiens, UniProt P04637); experiment: BFPX crosslinking of p53/DNA complexes, SDS PAGE; format: biochemical; conditions: denaturing SDS PAGE; probes with UV; vs no-protein controls
T5 construct: the human tumor suppressor p53 DBD; made in house
T5 sequence (P04637 102-292 limits assumed, one chain of several): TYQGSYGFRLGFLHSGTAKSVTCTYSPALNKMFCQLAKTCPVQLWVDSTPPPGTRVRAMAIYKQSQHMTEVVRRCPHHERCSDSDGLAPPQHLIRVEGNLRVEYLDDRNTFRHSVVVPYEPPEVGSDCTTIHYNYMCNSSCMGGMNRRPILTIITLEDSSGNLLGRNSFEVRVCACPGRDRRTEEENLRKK
Method: FIG. 12I depicts BFPX crosslinking of p53/DNA complexes. The binding reactions between the human tumor suppressor p53 DBD and a 37 mer Cy5 labeled DNA containing a consensus p53 tetramer binding site (5′-/5Cy5/-[…]-3′, (SEQ ID NO: 8)) were set up and treated with BFPX probes and UV illumination as described in FIG. 12C. The various treatment combinations were list above the gel. The reactions were then analyzed by SDS PAGE under denaturing condition as described in FIG. 12D. […] Because p53 bind this this DNA substrate as a tetramer, crosslinked p53/DNA complexes may contain one or more p53 protein molecules. While the monomeric p53/DNA complex appears to be the dominant crosslinked protein-DNA complexes, higher-molecule weight species were visible in SDS gel, which may correspond to crosslinked higher-order p53/DNA complex.

NFAT1 DNA binding domain = target: T6, NFAT1 DNA binding domain (Homo sapiens, UniProt Q13469 Q13469:399-676); experiment: SPB-AAD 100 uM + UV365 photocrosslinking, SDS-PAGE
T6 sequence: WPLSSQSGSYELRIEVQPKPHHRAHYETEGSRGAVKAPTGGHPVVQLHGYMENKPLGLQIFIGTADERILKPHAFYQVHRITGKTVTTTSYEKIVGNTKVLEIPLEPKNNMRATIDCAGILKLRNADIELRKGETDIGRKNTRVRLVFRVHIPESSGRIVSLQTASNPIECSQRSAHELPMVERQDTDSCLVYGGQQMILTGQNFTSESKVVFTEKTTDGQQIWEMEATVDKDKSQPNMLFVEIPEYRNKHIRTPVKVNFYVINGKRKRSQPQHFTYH
Method: The UV illumination (as indicated by a positive sign) was carried out using a LED Chip (21.4 mm×21.4 mm, 365-370 nm, 30 Watt, sample distance 2 cm, exposure time 2-15 min at 4 degree C., here the exposure time is 15 min). Half of the binding reaction (7.5 μl) was run on a 10% PAGE 0.5×TBE gel and visualized by Cy5 fluorescence on DNA. The small amount of single stranded DNA is due to incomplete annealing. The higher smearing bands are most likely non-specific protein complexes. Neither of these experimental imperfections affected the main conclusion of this experiment because the double stranded-DNA bands and the specific NFAT-DNA complex bands (the middle sharp bands) are well defined and can be monitored without the interference of the other bands.
FIG. 12D depicts the other half of binding reaction from the above experiments (FIG. 12C) were added SDS loading dye (2% SDS), boil for 10 min, and run on SDS gel (4-15% gradient gel). The gel was visualized by Cy5 fluorescence for DNA.
FIG. 12E depicts further characterization of BFPX crosslinking of NFAT1/DNA complexes using different DNA substrates and staining techniques. […] The reactions were then analyzed by SDS PAGE under denaturing condition as described in FIG. 12D. […]

formation of covalent MEF2/DNA crosslinked complex (MEF2A/DNA complex; probe + UV, denaturing gel): highly efficient crosslinking
effect of DTT treatment on the crosslinked NFAT-DNA complex (NFAT1/DNA complex; 25 μM probe, DTT 100 mM, 50 degree C., 30 min, FIG. 5H): reduced significantly
Molecule: Cc1oc2c(C)c3oc(=O)cc(C)c3cc2c1CNC(=O)CCSSCCNC(=O)CCC1(C)N=N1 [4AMT-SDAD]
release of crosslinked MEF2/DNA complexes by reductive cleavage (MEF2A/DNA complex; probe 10-100 μM, UV 15 min, 200 mM TCEP at 37° C. overnight): can be released by reductive cleavage of the disulfide bond
formation of covalent NFAT1/DNA crosslinked complex stable under denaturing SDS-PAGE (NFAT1/DNA complex; listed as 4AMT-LC-SDAD): highly efficient crosslinking; also recorded: crosslinked NFAT to its DNA substrate efficiently

Molecule: O=c1ccc2cc3ccoc3cc2o1 [Psoralen, psoralen]
affinity for double stranded DNA and RNA [1]: μM (Kd) affinity
efficiency of covalent crosslinking to DNA [1]: up to 80%

Molecule: Cc1oc2c(C)c3oc(=O)cc(C)c3cc2c1CN [4AMT, 4′-aminomethyltrioxsalen]
efficiency of covalent crosslinking to DNA [1]: up to 80%

apparent crosslinking efficiency (intensity of the complex band over the total DNA intensity) (NFAT1/DNA complex): 22.5%
crosslinking efficiency normalized against the total protein/DNA complex (NFAT1/DNA complex): ~47%
effect on the binding of NFAT1 to DNA (DNA binding by NFAT1): little or no effect
Molecule: CC1(CCC(=O)NCCCCCC(=O)NCCCCNCCCNC(=O)CCCOc2c3occc3cc3ccc(=O)oc23)N=N1 [SPB-Spermidine-AD, 6-(3-(3-methyl-3H-diazirin-3-yl)propanamido)-N-(4-((3-(4-((7-oxo-7H-furo[3,2-g]chromen-9-yl)oxy)butanamido)propyl)amino)butyl)hexanamide]
formation of covalent NFAT1/DNA crosslinked complex stable under denaturing SDS-PAGE (NFAT1/DNA complex): dosage dependent crosslinking of NFAT1/DNA complexes
crosslinking of the Nkx2.5/DNA complex (Nkx2.5/DNA complex): significant crosslinking of the Nkx2.5/DNA complex
crosslinking of the p53/DNA complex (p53/DNA complex): significant crosslinking of the p53/DNA complex

B1: c1 NFAT 21-mer (dsDNA)
DNA 1: TTCCACAGAGGAAAATTTGTT
DNA 2: AACAAATTTTCCTCTGTGGAA
binding result (NFAT1 DNA binding domain): binds
